How the values were obtained:
[1] = target: 264 peptide/HLA-A2 complexes on the surface of the human B lymphoid cell line T2 (Homo sapiens, UniProt P04439+P04637, D140Y/D185E/D98H/E176V/E277Q/G131W/G231S/I119V/I121R/I166T/I218V/L300P/L318F/N151K/N90K/P208A/P217A/Q86G/Q94H/R138H/R169H/T345S); assay: Flow cytometry / immunofluorescence staining of peptide-pulsed T2 cells with fusion protein (264 peptide); assay type: binding; conditions: 0.5 μg (10 μg/ml) fusion protein; T2 cells pulsed with 264 peptide
Procedure: (§1) Flow cytometry and immunofluoresence staining were used to show direct binding of the fusion protein via its TCR to peptide/HLA-A2 complexes on the surface of the human B lymphoid cell line T2 (FIG. 4) • A) Staining of 149 or 264 peptide pulsed T2 cells with 0.5 μg (10 μg/ml) of 264 scTCR-IL-2 fusion protein. […] To evaluate A2 loading of each peptide, the cells were stained with the HLA-A2 specific mAb BB7.2 […] after overnight incubation of the cells with peptide.

[2] = target: T1, 149 peptide/HLA-A2 complexes on the surface of the human B lymphoid cell line T2 (Homo sapiens, UniProt P04439+P04637, D140Y/D185E/D98H/E176V/E277Q/G131W/G231S/I119V/I121R/I166T/I218V/L300P/L318F/N151K/N90K/P208A/P217A/Q86G/Q94H/R138H/R169H/T345S); assay: Flow cytometry / immunofluorescence staining of peptide-pulsed T2 cells with fusion protein (149 peptide); assay type: binding; conditions: 0.5 μg (10 μg/ml) fusion protein; T2 cells pulsed with 149 peptide
T1 construct: on the surface of the human B lymphoid cell line T2; endogenous in cells; host or cells: T2 cells pulsed with 149 peptide
Procedure: as §1

[3] = test system: CTLL-2 cells and 264 peptide-loaded T2 cells; assay: Cell-cell conjugation assay, CTLL-2 cells with 264 peptide-loaded T2 cells, flow cytometer; assay type: cell-based, murine CTLL-2, human T2
Procedure: (§2) In this experiment, T2 cells pulsed with either the 149 or 264 peptide. CTLL-2 cells were hydrodiethidium (HE) labeled and incubated for 20 minutes at RT with an equal number of calcein-AM labeled T2 cells pulsed with either 50 μg of 149 or 264 peptide. […] In contrast, conjugate formation was not observed with the mixture that included the 149 peptide pulsed T2 cells (B; 0.88%). Cell samples were washed one time before analysis on the flow cytometer.

[4] = test system: CTLL-2 cells and 149 peptide pulsed T2 cells; assay: Cell-cell conjugation assay, CTLL-2 cells with 149 peptide pulsed T2 cells, flow cytometer; assay type: cell-based, murine CTLL-2, human T2; conditions: fusion protein; HE-labeled CTLL-2 and calcein-AM labeled T2 pulsed with 50 μg 149 peptide; 20 minutes at RT
Procedure: as §2

HLA-A2 = target: T2, HLA-A2 (Homo sapiens, UniProt P04439, D140Y/D185E/D98H/E176V/E277Q/G131W/G231S/I119V/I121R/I166T/I218V/L300P/L318F/N151K/N90K/P208A/P217A/Q86G/Q94H/R138H/R169H/T345S); assay: HLA-A2 loading of peptide on T2 cells, staining with HLA-A2 specific mAb BB7.2; assay type: cell-based; conditions: T2 cells pulsed with 50 μg peptide overnight; BB7.2 staining
T2 construct: HLA-A2 surface expression on T2 cells; endogenous in cells; host or cells: T2 cells
Procedure: as §1

| Substance | binding of fusion protein to T2 cells displaying the 264 peptide [1] | binding of fusion protein to T2 cells displaying the 149 peptide [2] | conjugation between cells (conjugate formation) ([3]; 1 Ag of fusion protein, HE-labeled CTLL-2 and calcein-AM labeled T2 pulsed with 50 μg 264 peptide, 20 minutes at RT) [%] | conjugation between a T cell and an antigen presenting cell pulsed with the correct peptide ([3]; restatement of example 11) | conjugation between cells (conjugate formation) [4] [%] | HLA-A2 binding of peptide (HLA-A2 surface expression on pulsed T2 cells) (HLA-A2) |
| --- | --- | --- | --- | --- | --- | --- |
| 264 scTCR-IL-2 fusion protein: soluble 264 single-chain TCR covalently linked to human IL-2 with EE peptide tag | binds specifically | not | 3.25 | able to mediate conjugation | 0.88 | – |
| LLGRNSFEV [264 peptide] | – | – | – | – | – | efficient HLA-A2 binding |

Reference: US20180086810A1, “T CELL RECEPTOR FUSIONS AND CONJUGATES AND METHODS OF USE THEREOF” (ALTOR BIOSCIENCE CORPORATION, priority 2000, published 2018)
